The values that follow come from ChEMBL document CHEMBL1126399, “Synthesis and enzymatic properties of a deoxy analog of phosphatidylinositol” (Bioorg Med Chem Lett, 1992).

This assay is described as follows: Inhibition of phosphatidylinositol (PI) hydrolysis. Format: functional.

pIC50: −log10 of the molar value.

On to `CCCCCCCCCCCCCCCC(=O)OC[C@H](COP(=O)(O)O[C@H]1C[C@@H](O)C(O)[C@@H](O)C1O)OC(=O)CCCCCCCCCCCCCCC` (stereo partly specified), for which the pIC50 is 2.70.

As a reminder, the pIC50 is the IC50 on a negative log10 scale, so that one unit is a factor of ten. Low readings indicate a large IC50, high ones a small IC50.
